From US20240287154A1, “MC3R AGONIST PEPTIDES” (The Regents of the University of Michigan, priority 2021, published 2024)
Non-standard residues stand in square brackets, D forms with d. Residues, ends and D or L forms follow the SMILES beside them. Phe(4-Br) = N[C@@H](Cc1ccc(Br)cc1)C(=O)O; Phe(4-I) = N[C@@H](Cc1ccc(I)cc1)C(=O)O; Nle = CCCC[C@H](N)C(=O)O; dAbu = CC[C@@H](N)C(=O)O

How the values were obtained:
human MC3R = molecular target: T1, human MC3R (Homo sapiens, UniProt P41968); assay: Intracellular cAMP levels in live cells, MC3R agonist activity; type: cell-based; settings: cAMP split-luciferase reporter cell line stably expressing human MC3R; direct agonist effect, measurement window 1
T1 construct: expressed in transfected cells
T1 sequence (P41968 whole entry): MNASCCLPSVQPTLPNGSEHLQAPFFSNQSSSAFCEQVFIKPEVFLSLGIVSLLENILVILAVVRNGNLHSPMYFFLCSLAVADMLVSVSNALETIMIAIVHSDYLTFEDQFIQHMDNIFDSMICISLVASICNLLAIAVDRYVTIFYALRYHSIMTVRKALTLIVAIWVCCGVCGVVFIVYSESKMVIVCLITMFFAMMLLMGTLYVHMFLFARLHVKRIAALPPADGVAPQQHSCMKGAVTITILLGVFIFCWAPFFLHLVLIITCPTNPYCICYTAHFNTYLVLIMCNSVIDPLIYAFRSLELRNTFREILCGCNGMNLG
Method: The stable cell lines were grown and maintained in selection media consisting of Dulbecco's modified Eagle media (DMEM) with 4.5 g/l D-glucose, and 4 mM L-glutamine (Thermo Fisher Scientific, Waltham, MA), supplemented with 10% fetal bovine serum, 100 units/ml penicillin, 100 μg/ml streptomycin, 2.5 μg/ml amphotericin B, 200 μg/ml hygromycin B (for positive selection of the GScAMP22f luciferase reporter), and Geneticin™ (G418) 700 μg/ml (for MC3R or MC4R selection). Actual serum concentration during the assay is estimated to be about 1%. Cell line identity is routinely verified by qPCR and MC3R- and MC4R-specific oligonucleotides.
The assay for the determination of the CAMP response in live cells was described previously. […] Ccells were seeded at a density of 20,000 cells per well using 384-well poly-D lysine-coated, clear bottom, and black-wall assay plates (Corning Inc. Corning, NJ). Cells were allowed to attach to the plates for 18 to 24 h after which growth media was removed and 20 ul of 4% D-luciferin (Promega) in CO2 independent, serum-free medium (Thermo Fisher Scientific) was added to each well. […] Intracellular cAMP levels were measured using an FDSS 7000EX Functional Drug Screening System (Hamamatsu Photonics, Hamamatsu, Japan) in the Center for Chemical Genomics at the Life Sciences Institute. This instrument allowed the in-line addition of test-peptides and receptor agonists while simultaneously acquiring the luminescence signal from live cells. […] A submaximal forskolin (20 μM) concentration was also included to serve as a normalization reference to account for cell number variations and differences in assay transducer efficiency between cell lines.
With this set up it was possible to evaluate the direct agonist effect of the test-peptides on the MC3R and MC4R cell lines during measurement window 1, while the antagonist profile in the presence of EC90 α-MSH was determined on measurement window 2. […] EC50 or IC50 potency values were determined by non-linear regression by fitting the data to a sigmoid four-parameter variable slope model using the GraphPad Prism version 8.4 software package (San Diego CA).

human MC4R = human MC4R (Homo sapiens, UniProt P32245); assay: Intracellular cAMP levels in live cells, MC3R selectivity relative to MC4R; type: cell-based; settings: cAMP assays in human MC3R and human MC4R stable cell lines
Sequence of human MC4R (P32245 whole entry): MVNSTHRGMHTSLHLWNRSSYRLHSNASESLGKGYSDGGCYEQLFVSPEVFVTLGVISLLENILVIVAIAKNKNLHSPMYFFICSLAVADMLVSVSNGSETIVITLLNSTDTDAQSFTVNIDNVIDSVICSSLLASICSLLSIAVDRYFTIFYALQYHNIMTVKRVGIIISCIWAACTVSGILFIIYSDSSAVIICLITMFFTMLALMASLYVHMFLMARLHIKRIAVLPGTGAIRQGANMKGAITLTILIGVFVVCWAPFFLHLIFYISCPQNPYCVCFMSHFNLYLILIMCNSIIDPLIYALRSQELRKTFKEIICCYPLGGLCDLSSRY

in vitro = assay: in vitro
Method: Pooled mouse plasma was prepared and stored at −80° C. prior to use. 396 μL mouse plasma was incubated at 37° C. for 5 minutes in 1.5 mL microcentrifuge tubes. 4 μL of 100 μM test or control compound/peptide was added to each tube and incubated for 0.5, 15, 30, 60, 120, or 240 minutes. An aliquot of 40 μL of each reaction was stopped by the addition of 4 volume of cold acetonitrile containing 200 ng/mL of Setmelanotide as an internal standard (IS). The incubation solution was centrifuged at 3500 rpm for 10 minutes to precipitate protein. The supernatant was used for LC/MS/MS analysis. The natural log peak area ratio (compound peak […] area/internal standard peak area) was plotted against time and the gradient of the line determined.

Row | SMILES | EC50 (human MC3R) [nM] | MC3R selectivity (relative to MC4R) (human MC4R) | other results
1 | CCCC[C@H](NC(=O)[C@@H](NC(=O)[C@@H](N)Cc1ccc(O)cc1)C(C)C)C(=O)N[C@@H](C)C(=O)N[C@@H](Cc1c[nH]cn1)C(=O)N[C@@H](Cc1ccccc1)C(=O)N[C@@H](CCCNC(=N)N)C(=O)N[C@H](Cc1c[nH]c2ccccc12)C(=O)N[C@@H](CC(=O)O)C(N)=O [CTX-1129, Tyr-Val-Nle-Ala-His-Phe-Arg-D-Trp-Asp] (H-YV[Nle]AHFR[dW]D-NH2) | 1.2 | 7.5 | –
2 | CC(C)[C@H](NC(=O)[C@@H](N)Cc1ccc(O)cc1)C(=O)N[C@@H](CCC(=O)O)C(=O)N[C@H](C)C(=O)N[C@@H](Cc1c[nH]cn1)C(=O)N[C@H](Cc1ccccc1)C(=O)N[C@@H](CCCNC(=N)N)C(=O)N[C@H](Cc1c[nH]c2ccccc12)C(=O)N[C@@H](CC(=O)O)C(=O)N[C@@H](CCCNC(=N)N)C(=O)N[C@@H](Cc1ccccc1)C(=O)NCC(=O)O [CTX-1106, Tyr-Val-Glu-D-Ala-His-D-Phe-Arg-D-Trp-Asp-Arg-Phe-Gly] (H-YVE[dA]H[dF]R[dW]DRFG-OH) | 5.8 | 120 | –
3 | CCCC[C@H](NC(C)=O)C(=O)N[C@H](C)C(=O)N[C@@H](Cc1c[nH]cn1)C(=O)N[C@@H](Cc1ccccc1)C(=O)N[C@@H](CCCNC(=N)N)C(=O)N[C@H](Cc1c[nH]c2ccccc12)C(=O)N[C@H](Cc1ccccc1)C(=O)N[C@@H](CCCNC(=N)N)C(=O)N[C@@H](Cc1ccccc1)C(=O)NCC(=O)O [CTX-1531, Nle-D-Ala-His-Phe-Arg-D-Trp-D-Phe-Arg-Phe-Gly] (Ac-[Nle][dA]HFR[dW][dF]RFG-OH) | 357 | 8 | –
4 | CSCC[C@H](N)C(=O)NCC(=O)N[C@@H](Cc1c[nH]cn1)C(=O)N[C@@H](Cc1ccccc1)C(=O)N[C@@H](CCCNC(=N)N)C(=O)N[C@H](Cc1c[nH]c2ccccc12)C(=O)N[C@@H](CC(=O)O)C(=O)N[C@@H](CCCNC(=N)N)C(=O)N[C@@H](Cc1ccccc1)C(=O)NCC(=O)O [CTX-1547, Met-Gly-His-Phe-Arg-D-Trp-Asp-Arg-Phe-Gly] (H-MGHFR[dW]DRFG-OH) | 1.5 | 54 | –
5 | CCCC[C@H](NC(C)=O)C(=O)N[C@H](C)C(=O)N[C@@H](Cc1c[nH]cn1)C(=O)N[C@@H](Cc1ccc(I)cc1)C(=O)N[C@@H](CCCNC(=N)N)C(=O)N[C@H](Cc1c[nH]c2ccccc12)C(=O)NCC(N)=O [CTX-1543, Nle-D-Ala-His-Phe(4-I)-Arg-D-Trp-Gly] (Ac-[Nle][dA]H[Phe(4-I)]R[dW]G-NH2) | 3.1 | 202 | –
6 | CCCC[C@H](NC(C)=O)C(=O)N[C@H](C)C(=O)N[C@@H](Cc1c[nH]cn1)C(=O)N[C@@H](Cc1ccc(Br)cc1)C(=O)N[C@@H](CCCNC(=N)N)C(=O)N[C@H](Cc1c[nH]c2ccccc12)C(=O)N[C@@H](CC(=O)O)C(=O)N[C@@H](CCCNC(=N)N)C(=O)N[C@@H](Cc1ccccc1)C(=O)NCC(=O)O [CTX-1165, Nle-D-Ala-His-Phe(4-Br)-Arg-D-Trp-Asp-Arg-Phe-Gly] (Ac-[Nle][dA]H[Phe(4-Br)]R[dW]DRFG-OH) | 3 | 5598 | –
7 | CSCC[C@H](NC(=O)[C@@H](N)C(C)C)C(=O)NCC(=O)N[C@@H](Cc1c[nH]cn1)C(=O)N[C@@H](Cc1ccccc1)C(=O)N[C@@H](CCCNC(=N)N)C(=O)N[C@H](Cc1c[nH]c2ccccc12)C(=O)N[C@@H](CC(=O)O)C(=O)N[C@@H](CCCNC(=N)N)C(=O)N[C@@H](Cc1ccccc1)C(=O)NCC(=O)O [CTX-1546, Val-Met-Gly-His-Phe-Arg-D-Trp-Asp-Arg-Phe-Gly] (H-VMGHFR[dW]DRFG-OH) | 1.7 | 51 | –
8 | CCCC[C@H](NC(=O)CNC(=O)COCCOCCNC(=O)CNC(=O)CCc1ccc(I)cc1)C(=O)N[C@H](C)C(=O)N[C@@H](Cc1c[nH]cn1)C(=O)N[C@@H](Cc1ccccc1)C(=O)N[C@@H](CCCNC(=N)N)C(=O)N[C@H](Cc1c[nH]c2ccccc12)C(=O)N[C@@H](CC(=O)O)C(=O)N[C@@H](CCCNC(=N)N)C(=O)N[C@@H](Cc1ccccc1)C(=O)NCC(=O)O [CTX-1148, Gly-Nle-D-Ala-His-Phe-Arg-D-Trp-Asp-Arg-Phe-Gly] | 1.5 | 1197 | –
9 | CCCC[C@H](NC(C)=O)C(=O)N[C@H](CC)C(=O)N[C@@H](Cc1c[nH]cn1)C(=O)N[C@@H](Cc1ccc(I)cc1)C(=O)N[C@@H](CCCNC(=N)N)C(=O)N[C@H](Cc1c[nH]c2ccccc12)C(=O)N[C@@H](CC(=O)O)C(=O)N[C@@H](CCCNC(=N)N)C(=O)N[C@@H](Cc1ccccc1)C(=O)NCC(=O)O [CTX-1191, Nle-D-Abu-His-Phe(4-I)-Arg-D-Trp-Asp-Arg-Phe-Gly] (Ac-[Nle][dAbu]H[Phe(4-I)]R[dW]DRFG-OH) | 3.9 | 470 | –
10 | CCCC[C@H](NC(=O)CNC(=O)COCCOCCNC(=O)CNC(=O)CCc1ccc(I)cc1)C(=O)N[C@H](C)C(=O)N[C@@H](Cc1c[nH]cn1)C(=O)N[C@@H](Cc1ccccc1)C(=O)N[C@@H](CCCNC(=N)N)C(=O)N[C@H](Cc1c[nH]c2ccccc12)C(=O)N[C@@H](CC(=O)O)C(=O)N[C@@H](CCCNC(=N)N)C(=O)N[C@H](Cc1ccccc1)C(=O)NCC(=O)O [CTX-1154, Gly-Nle-D-Ala-His-Phe-Arg-D-Trp-Asp-Arg-D-Phe-Gly] | 5.8 | 1070 | –
11 | CCCC[C@H](NC(=O)[C@@H](NC(=O)[C@@H](N)Cc1ccc(O)cc1)C(C)C)C(=O)N[C@H](C)C(=O)N[C@@H](Cc1c[nH]cn1)C(=O)N[C@@H](Cc1ccccc1)C(=O)N[C@@H](CCCNC(=N)N)C(=O)N[C@H](Cc1c[nH]c2ccccc12)C(=O)N[C@@H](CC(=O)O)C(=O)N[C@@H](CCCNC(=N)N)C(=O)N[C@@H](Cc1ccccc1)C(N)=O [CTX-1119, Tyr-Val-Nle-D-Ala-His-Phe-Arg-D-Trp-Asp-Arg-Phe] (H-YV[Nle][dA]HFR[dW]DRF-NH2) | 1.9 | 24 | –
12 | CCCC[C@H](NC(C)=O)C(=O)N[C@H](C)C(=O)N[C@@H](Cc1c[nH]cn1)C(=O)N[C@@H](Cc1ccccc1)C(=O)N[C@@H](CCCNC(=N)N)C(=O)N[C@H](Cc1c[nH]c2ccccc12)C(=O)N[C@@H](Cc1ccccc1)C(=O)N[C@@H](CCCNC(=N)N)C(=O)N[C@@H](Cc1ccccc1)C(=O)NCC(=O)O [CTX-1529, Nle-D-Ala-His-Phe-Arg-D-Trp-Phe-Arg-Phe-Gly] (Ac-[Nle][dA]HFR[dW]FRFG-OH) | 4.8 | 82 | –
13 | CCCC[C@H](NC(=O)[C@@H](NC(=O)[C@@H](N)Cc1ccc(O)cc1)C(C)C)C(=O)N[C@H](Cc1ccccc1)C(=O)N[C@@H](Cc1c[nH]cn1)C(=O)N[C@@H](Cc1ccccc1)C(=O)N[C@@H](CCCNC(=N)N)C(=O)N[C@H](Cc1c[nH]c2ccccc12)C(=O)N[C@@H](CC(=O)O)C(=O)N[C@@H](CCCNC(=N)N)C(=O)N[C@@H](Cc1ccccc1)C(=O)NCC(=O)O [CTX-1136, Tyr-Val-Nle-D-Phe-His-Phe-Arg-D-Trp-Asp-Arg-Phe-Gly] (H-YV[Nle][dF]HFR[dW]DRFG-OH) | 1.9 | 37 | –
14 | CCCC[C@H](NC(=O)[C@@H](NC(=O)[C@@H](N)Cc1ccc(O)cc1)C(C)C)C(=O)N[C@H](C)C(=O)N[C@@H](Cc1c[nH]cn1)C(=O)N[C@@H](Cc1ccccc1)C(=O)N[C@@H](CCCNC(=N)N)C(=O)N[C@H](Cc1c[nH]c2ccccc12)C(=O)N[C@@H](CC(=O)O)C(N)=O [CTX-1108, Tyr-Val-Nle-D-Ala-His-Phe-Arg-D-Trp-Asp] (H-YV[Nle][dA]HFR[dW]D-NH2) | – | 79 | half-life at 1 µM (in vitro; mouse, plasma): 1.32 min; remaining at 5 min, 1 µM (in vitro; mouse, plasma): 7.21%; remaining at 0.25 h, 1 µM (in vitro; mouse, plasma): 0.33%; remaining at 0.5 h, 1 µM (in vitro; mouse, plasma): 0.04%; remaining at 1 h, 1 µM (in vitro; mouse, plasma): 0.01%; Mouse Plasma Stability, time point 0 min (in vitro; pooled mouse plasma, 37° C., 0 min): 100%
15 | CCCC[C@H](NC(C)=O)C(=O)N[C@H](C)C(=O)N[C@@H](Cc1c[nH]cn1)C(=O)N[C@@H](Cc1ccccc1)C(=O)N[C@@H](CCCNC(=N)N)C(=O)N[C@H](Cc1c[nH]c2ccccc12)C(=O)N[C@@H](CC(=O)O)C(=O)N[C@H](CCCNC(=N)N)C(=O)N[C@@H](Cc1ccccc1)C(=O)NCC(=O)O [CTX-1146, Nle-D-Ala-His-Phe-Arg-D-Trp-Asp-D-Arg-Phe-Gly] (Ac-[Nle][dA]HFR[dW]D[dR]FG-OH) | 170 | – | –
